Measurements as given in PubChem BioAssay (NCI).
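A five-concentration, 48-hour dose response in 96-well plates underlies each endpoint, interpolated linearly between surrounding concentrations. At the TGI there is no net growth.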

How the values were obtained:
Experiment in all cases: NCI-60 cell line screen, 48 h
[1] = system: HOP-92 NSCLC
[2] = system: TK-10 renal
[3] = system: IGROV1 ovarian
[4] = system: UACC-257 melanoma
[5] = system: SK-MEL-28 melanoma
[6] = system: NCI/ADR-RES ovarian
[7] = system: SNB-19 CNS
[8] = system: HL-60(TB) leukemia
[9] = system: HCC-2998 colon
[10] = system: LOX IMVI melanoma
[11] = system: HCT-15 colon
[12] = system: UO-31 renal
[13] = system: A549 NSCLC
[14] = system: SF-539 CNS
[15] = system: HS 578T breast
[16] = system: OVCAR-4 ovarian
[17] = system: CAKI-1 renal
[18] = system: NCI-H226 lung
[19] = system: NCI-H522 lung
[20] = system: SK-OV-3 ovarian
[21] = system: CCRF-CEM leukemia
[22] = system: 786-0 renal
[23] = system: MDA-N
[24] = system: OVCAR-5 ovarian
[25] = system: NCI-H460 lung
[26] = system: BT-549 breast
[27] = system: SW-620 colon
[28] = system: MDA-MB-435
[29] = system: M14 melanoma
[30] = system: MALME-3M melanoma
[31] = system: OVCAR-8 ovarian
[32] = system: ACHN renal
[33] = system: U251 CNS
[34] = system: HCT-116 colon
[35] = system: MDA-MB-231 breast
[36] = system: SR leukemia
[37] = system: COLO 205 colon
[38] = system: HT29 colon
[39] = system: UACC-62 melanoma
[40] = system: NCI-H23 lung
[41] = system: K-562 leukemia
[42] = system: SN12C renal
[43] = system: SF-268 CNS
[44] = system: KM12 colon
[45] = system: SK-MEL-2 melanoma
[46] = system: A498 renal
[47] = system: SK-MEL-5 melanoma
[48] = system: T-47D breast
[49] = system: MCF7 breast
[50] = system: DU-145 prostate
[51] = system: EKVX NSCLC
[52] = system: PC-3 prostate
[53] = system: SF-295 CNS
[54] = system: RPMI-8226 leukemia
[55] = system: OVCAR-3 ovarian
[56] = system: SNB-75 CNS
[57] = system: MOLT-4 leukemia
[58] = system: RXF 393 renal
[59] = system: HOP-62 NSCLC

`CC1C2CCC3C(O)C2(CC(O)C2(O)C1CC(O)C2(C)C)CC3(C)O` (stereo not drawn) was tested, and the TGI [1] was > 100 µM, the TGI [2] was > 100 µM and the TGI [3] was > 100 µM. The TGI [4] was > 100 µM, the TGI [5] was > 100 µM and the TGI [6] was > 100 µM. The TGI [7] was > 100 µM, the TGI [8] was > 100 µM and the TGI [9] was > 100 µM. The TGI [10] was > 100 µM, the TGI [11] was > 100 µM and the TGI [12] was > 100 µM. For the same compound, the TGI [13] was > 100 µM, the TGI [14] was > 100 µM and the TGI [15] was > 100 µM. For the same compound, the TGI [16] was > 100 µM, the TGI [17] was > 100 µM and the TGI [18] was > 100 µM. For the same compound, the TGI [19] was > 100 µM, the TGI [20] was > 100 µM and the TGI [21] was > 100 µM. The TGI [22] was > 100 µM, the TGI [23] was > 100 µM and the TGI [24] was > 100 µM. The TGI [25] was > 100 µM, the TGI [26] was > 100 µM and the TGI [27] was > 100 µM. The TGI [28] was > 100 µM, the TGI [29] was > 100 µM and the TGI [30] was > 100 µM. The TGI [31] was > 100 µM, the TGI [32] was > 100 µM and the TGI [33] was > 100 µM. The TGI [34] was > 100 µM, the TGI [35] was > 100 µM and the TGI [36] was > 100 µM. For the same compound, the TGI [37] was > 100 µM, the TGI [38] was > 100 µM and the TGI [39] was > 100 µM. The TGI [40] was > 100 µM, the TGI [41] was > 100 µM and the TGI [42] was > 100 µM. For the same compound, the TGI [43] was > 100 µM, the TGI [44] was > 100 µM and the TGI [45] was > 100 µM. The TGI [46] was > 100 µM, the TGI [47] was > 100 µM and the TGI [48] was > 100 µM. For the same compound, the TGI [49] was > 100 µM, the TGI [50] was > 100 µM and the TGI [51] was > 100 µM. For the same compound, the TGI [52] was > 100 µM and the TGI [53] was > 100 µM.

For `O=C1c2c(ccc3c2CCC3)CC1Cc1ccc2c(c1)CCC2` (stereo not drawn), the TGI [2] was > 100 µM, the TGI [3] was > 100 µM and the TGI [54] was 53.1 µM. For the same compound, the TGI [4] was 61.9 µM, the TGI [5] was > 100 µM and the TGI [6] was > 100 µM. The TGI [7] was > 100 µM, the TGI [55] was > 100 µM and the TGI [8] was 21.7 µM. For the same compound, the TGI [9] was > 100 µM, the TGI [10] was > 100 µM and the TGI [11] was > 100 µM. For the same compound, the TGI [12] was > 100 µM, the TGI [13] was > 100 µM and the TGI [14] was > 100 µM. The TGI [15] was 61.6 µM, the TGI [16] was 85.4 µM and the TGI [18] was > 100 µM. The TGI [20] was > 100 µM, the TGI [21] was 37.8 µM and the TGI [22] was 99.1 µM. For the same compound, the TGI [23] was > 100 µM, the TGI [24] was > 100 µM and the TGI [25] was > 100 µM. For the same compound, the TGI [26] was > 100 µM, the TGI [27] was > 100 µM and the TGI [28] was 92.4 µM. The TGI [29] was > 100 µM, the TGI [30] was > 100 µM and the TGI [31] was > 100 µM. For the same compound, the TGI [32] was > 100 µM, the TGI [33] was > 100 µM and the TGI [34] was 47.2 µM. It also gave a TGI [35] of 49 µM, a TGI [36] of 30.9 µM and a TGI [37] of 51.4 µM. It also gave a TGI [38] of 60.9 µM, a TGI [39] of 42.7 µM and a TGI [40] of 85.9 µM. For the same compound, the TGI [41] was 80.1 µM, the TGI [42] was > 100 µM and the TGI [43] was > 100 µM. For the same compound, the TGI [44] was > 100 µM, the TGI [45] was 73.8 µM and the TGI [56] was 56 µM. For the same compound, the TGI [46] was > 100 µM, the TGI [47] was 27.9 µM and the TGI [48] was 27 µM. For the same compound, the TGI [49] was 96.6 µM, the TGI [50] was > 100 µM and the TGI [51] was > 100 µM. The TGI [57] was 51.6 µM, the TGI [58] was 69.1 µM and the TGI [59] was 94.2 µM. For the same compound, the TGI [53] was 94.3 µM.
